Reference: patent US9993554B2 (CENTRO NACIONAL DE INVESTIGACIONES ONCOLOGICAS (CNIO), priority 2010, dated 2018)
“Also recorded” adds a separate entry of the source.

Legend:
[1] = system: brown adipose tissue (BAT) of C57BL6 mice; test: In vivo inhibition of PI3K: mRNA levels in BAT; conditions: 15 mg/kg by gavage, 6 h, C57BL6 males
Procedure: For in vitro assays Compound A was added at a concentration of 1 μM. For in vivo assays, Compound A″ was administered orally by gavage at a dose of 15 mg/kg. Mice were sacrificed 6 h after and tissues were extracted and analyzed. Treated mice were C57BL6 males, 3 months old.
Total RNA from tissues or fibroblasts was extracted using TRIZOL (Invitrogen). Reverse transcription was performed using random primers and Ready-To-Go™ You-Prime First-Strand Beads (GE Healthcare). Quantitative real time-PCR was performed using DNA Master Sybr Green I mix (Applied Biosystems) in an ABI PRISM 7700 thermocycler (Applied Biosystem). Primer sequences are described in Supp.

[2] = system: SCID mice bearing human NSCLC A549 lung tumors; test: Body weight of SCID mice bearing A549 lung tumor xenografts; format: in vivo; conditions: 22 mg/kg orally, 9 doses, SCID mice with A549 xenografts
Procedure: FIG. 41. Body weight evolution of SCID mice bearing human NSCLC A549 lung tumors when treated with Compound A orally, 9 doses of 22 mg/Kg during day 15th and 30th, versus compounds treated with vehicle.
In “normal conditions” no body weight loss is observed.

Which results are given for `CS(=O)(=O)N1CCN(Cc2cn3c(Cl)c(-c4cnc(N)nc4)nc(N4CCOCC4)c3n2)CC1` [Compound A]?
Lcad mRNA in the BAT [1]: significant upregulation; Pgc1a mRNA in the BAT [1]: significant upregulation; Ucp1 mRNA in the BAT [1]: significant upregulation; body weight of non-obese mice [2]: no changes in body weight; also recorded: “lack” of weight loss activity
